Assay results published in patent publication US8623869B2, “Compounds useful as inhibitors of ATR kinase” (Vertex Pharmaceuticals Incorporated, priority 2010, dated 2014).

Biological target: T1, full-length ATR (Homo sapiens, UniProt Q13535)
T1 construct: Assays were carried out at 25° C. in the presence of 5 nM full-length ATR
Test: ATR Inhibition Assay (radioactive-phosphate incorporation)
Assay type: biochemical
Details: Ki(app); 5 nM full-length ATR, 10 μM ATP, 800 μM target peptide, 25° C.
Description: Compounds were screened for their ability to inhibit ATR kinase using a radioactive-phosphate incorporation assay. Assays were carried out in a mixture of 50 mM Tris/HCl (pH 7.5), 10 mM MgCl2 and 1 mM DTT. Final substrate concentrations were 10 μM [γ-33P]ATP (3mCi 33P ATP/mmol ATP, Perkin Elmer) and 800 μM target peptide (ASELPASQPQPFSAKKK).
Assays were carried out at 25° C. in the presence of 5 nM full-length ATR. An assay stock buffer solution was prepared containing all of the reagents listed above, with the exception of ATP and the test compound of interest. 13.5 μL of the stock solution was placed in a 96 well plate followed by addition of 2 μL of DMSO stock containing serial dilutions of the test compound (typically starting from a final concentration of 15 μM with 3-fold serial dilutions) in duplicate (final DMSO concentration 7%). The plate was pre-incubated for 10 minutes at 25° C. and the reaction initiated by addition of 15 μL [γ-33P]ATP (final concentration 10 μM).
The reaction was stopped after […] by the addition of 30 μL 0.1M phosphoric acid containing 2 mM ATP. A multiscreen phosphocellulose filter 96-well plate (Millipore, Cat no. MAPHN0B50) was pretreated with 100 μL 0.2M phosphoric acid prior to the addition of 45 μL of the stopped assay mixture. The plate was washed with 5×200 μL 0.2M phosphoric acid. After drying, 100 μL Optiphase ‘SuperMix’ liquid scintillation cocktail (Perkin Elmer) was added to the well prior to scintillation counting (1450 Microbeta Liquid Scintillation Counter, Wallac).
After removing mean background values for all of the data points, Ki(app) data were calculated from non-linear regression analysis of the initial rate data using the Prism software package (GraphPad Prism version 3.0cx for Macintosh, GraphPad Software, San Diego Calif., USA).

T1 sequence (Q13535 whole entry): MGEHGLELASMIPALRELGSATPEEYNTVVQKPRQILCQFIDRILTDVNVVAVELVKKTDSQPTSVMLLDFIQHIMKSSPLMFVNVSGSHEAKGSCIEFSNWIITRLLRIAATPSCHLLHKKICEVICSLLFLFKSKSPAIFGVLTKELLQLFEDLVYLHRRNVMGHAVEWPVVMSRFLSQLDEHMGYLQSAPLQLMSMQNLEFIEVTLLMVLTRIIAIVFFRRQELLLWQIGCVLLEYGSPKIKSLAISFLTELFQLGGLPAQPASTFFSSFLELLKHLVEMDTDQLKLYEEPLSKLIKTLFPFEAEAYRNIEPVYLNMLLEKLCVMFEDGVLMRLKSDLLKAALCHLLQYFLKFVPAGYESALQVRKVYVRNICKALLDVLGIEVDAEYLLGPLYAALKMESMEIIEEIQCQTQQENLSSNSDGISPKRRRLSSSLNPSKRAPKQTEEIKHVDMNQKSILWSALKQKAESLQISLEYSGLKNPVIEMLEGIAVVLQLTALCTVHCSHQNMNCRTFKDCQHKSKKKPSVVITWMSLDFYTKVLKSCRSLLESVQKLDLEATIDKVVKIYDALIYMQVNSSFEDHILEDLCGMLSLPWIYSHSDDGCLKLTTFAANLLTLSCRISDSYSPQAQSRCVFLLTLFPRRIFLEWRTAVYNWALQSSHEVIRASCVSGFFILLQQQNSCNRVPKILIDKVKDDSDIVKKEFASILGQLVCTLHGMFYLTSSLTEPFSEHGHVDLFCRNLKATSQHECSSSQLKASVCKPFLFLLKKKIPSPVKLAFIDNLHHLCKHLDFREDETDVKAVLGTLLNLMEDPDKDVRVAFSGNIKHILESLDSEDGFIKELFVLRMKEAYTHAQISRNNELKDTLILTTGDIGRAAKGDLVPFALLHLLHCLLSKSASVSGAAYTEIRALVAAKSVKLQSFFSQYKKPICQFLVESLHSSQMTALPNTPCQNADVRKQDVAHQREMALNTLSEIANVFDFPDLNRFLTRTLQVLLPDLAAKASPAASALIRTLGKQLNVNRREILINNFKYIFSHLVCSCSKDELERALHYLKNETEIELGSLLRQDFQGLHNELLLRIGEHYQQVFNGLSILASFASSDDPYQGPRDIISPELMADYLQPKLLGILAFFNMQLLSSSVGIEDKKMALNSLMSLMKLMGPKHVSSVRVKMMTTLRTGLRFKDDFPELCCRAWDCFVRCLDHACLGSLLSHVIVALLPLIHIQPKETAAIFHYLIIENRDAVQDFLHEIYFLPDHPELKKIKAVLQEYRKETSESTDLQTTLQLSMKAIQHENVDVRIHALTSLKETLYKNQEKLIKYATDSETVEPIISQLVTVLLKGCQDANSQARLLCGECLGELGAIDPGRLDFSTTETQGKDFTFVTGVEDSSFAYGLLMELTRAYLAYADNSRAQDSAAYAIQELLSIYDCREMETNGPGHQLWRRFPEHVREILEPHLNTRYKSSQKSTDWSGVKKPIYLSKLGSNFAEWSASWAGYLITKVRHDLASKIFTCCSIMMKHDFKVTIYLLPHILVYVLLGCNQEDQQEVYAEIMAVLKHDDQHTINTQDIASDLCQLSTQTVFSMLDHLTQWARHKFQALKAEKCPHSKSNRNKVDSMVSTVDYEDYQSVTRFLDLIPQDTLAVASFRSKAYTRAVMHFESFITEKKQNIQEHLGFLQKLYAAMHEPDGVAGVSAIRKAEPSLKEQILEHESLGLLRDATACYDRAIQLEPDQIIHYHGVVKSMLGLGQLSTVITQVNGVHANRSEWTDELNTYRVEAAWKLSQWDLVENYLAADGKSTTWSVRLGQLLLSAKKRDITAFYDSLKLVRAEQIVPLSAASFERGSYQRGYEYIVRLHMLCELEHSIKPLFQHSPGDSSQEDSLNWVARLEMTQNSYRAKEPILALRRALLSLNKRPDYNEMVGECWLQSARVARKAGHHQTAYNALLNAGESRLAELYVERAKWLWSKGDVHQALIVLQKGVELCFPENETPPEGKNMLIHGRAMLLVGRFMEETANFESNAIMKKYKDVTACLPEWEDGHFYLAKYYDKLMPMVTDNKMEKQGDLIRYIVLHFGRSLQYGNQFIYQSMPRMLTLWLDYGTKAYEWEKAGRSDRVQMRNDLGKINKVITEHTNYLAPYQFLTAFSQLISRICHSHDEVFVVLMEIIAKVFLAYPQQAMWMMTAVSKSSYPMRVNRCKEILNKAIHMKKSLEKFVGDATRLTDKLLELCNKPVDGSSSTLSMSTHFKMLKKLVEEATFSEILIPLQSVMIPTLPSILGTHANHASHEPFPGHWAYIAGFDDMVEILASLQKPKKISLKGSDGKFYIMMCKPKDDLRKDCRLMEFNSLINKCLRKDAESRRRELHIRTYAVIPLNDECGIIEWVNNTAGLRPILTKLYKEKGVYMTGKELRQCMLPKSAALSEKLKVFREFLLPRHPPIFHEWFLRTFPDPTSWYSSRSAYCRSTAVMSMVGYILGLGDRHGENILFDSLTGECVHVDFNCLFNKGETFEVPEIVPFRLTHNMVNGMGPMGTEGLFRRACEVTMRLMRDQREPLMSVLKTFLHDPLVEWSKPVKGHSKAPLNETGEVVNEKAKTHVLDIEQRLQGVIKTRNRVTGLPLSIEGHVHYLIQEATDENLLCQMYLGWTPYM

Ki | Structure (SMILES)
≤ 0.01 µM | CC(C)S(=O)(=O)c1ccc(-c2cnc3[nH]cc(-c4cnc5[nH]ccc5c4)c3n2)cc1 [Compound I-6, 2-(4-isopropylsulfonylphenyl)-7-(1H-pyrrolo[2,3-b]pyridin-5-yl)-5H-pyrrolo[2,3-b]pyrazine]
> 0.05 µM | CC(C)S(=O)(=O)c1ccc(-c2cnc3[nH]cc(-c4ccccc4C#N)c3n2)cc1 [Compound I-8, 2-[2-(4-isopropylsulfonylphenyl)-5H-pyrrolo[2,3-b]pyrazin-7-yl]benzonitrile]
> 0.05 µM | CC(C)S(=O)(=O)c1ccc(-c2cnc3[nH]cc(-c4cc5cc(Br)ccc5s4)c3n2)cc1 [Compound I-54, 7-(5-bromobenzothiophen-2-yl)-2-(4-isopropylsulfonylphenyl)-5H-pyrrolo[2,3-b]pyrazine]
> 0.05 µM | CC(C)S(=O)(=O)c1ccc(-c2cnc3[nH]cc(-c4cn(S(=O)(=O)c5ccccc5)c5ccccc45)c3n2)cc1 [Compound I-59, 7-[1-(benzenesulfonyl)indol-3-yl]-2-(4-isopropylsulfonylphenyl)-5H-pyrrolo[2,3-b]pyrazine]
≤ 0.01 µM | CC(N)c1cccc(-c2cc(-c3c[nH]c4ncc(-c5ccc(S(=O)(=O)C(C)C)cc5)nc34)on2)c1 (stereo not drawn) [Compound I-4, 1-[3-[5-[2-(4-isopropylsulfonylphenyl)-5H-pyrrolo[2,3-b]pyrazin-7-yl]isoxazol-3-yl]phenyl]ethanamine]
0.01 to 0.05 µM | CC(C)S(=O)(=O)c1ccc(-c2cnc3[nH]cc(-c4cccc(-c5nnn[nH]5)c4)c3n2)cc1 [Compound I-68, 2-(4-isopropylsulfonylphenyl)-7-[3-(1H-tetrazol-5-yl)phenyl]-5H-pyrrolo[2,3-b]pyrazine]
> 0.05 µM | COc1ncc(-c2c[nH]c3ncc(-c4ccc(S(=O)(=O)C(C)C)cc4)nc23)c(OC)n1 [Compound I-46, 7-(2,4-dimethoxypyrimidin-5-yl)-2-(4-isopropylsulfonylphenyl)-5H-pyrrolo[2,3-b]pyrazine]
> 0.05 µM | COCc1ccccc1-c1c[nH]c2ncc(-c3ccc(S(=O)(=O)C(C)C)cc3)nc12 [Compound I-17, 2-(4-isopropylsulfonylphenyl)-7-[2-(methoxymethyl)phenyl]-5H-pyrrolo[2,3-b]pyrazine]
0.01 to 0.05 µM | CC(C)S(=O)(=O)c1ccc(-c2cnc3[nH]cc(-c4sccc4C(=O)O)c3n2)cc1 [Compound I-63, 2-[2-(4-isopropylsulfonylphenyl)-5H-pyrrolo[2,3-b]pyrazin-7-yl]thiophene-3-carboxylic acid]
> 0.05 µM | Cc1noc(C)c1-c1c[nH]c2ncc(-c3ccc(S(=O)(=O)C(C)C)cc3)nc12 [Compound I-25, 4-[2-(4-isopropylsulfonylphenyl)-5H-pyrrolo[2,3-b]pyrazin-7-yl]-3,5-dimethyl-isoxazole]
0.01 to 0.05 µM | CC(C)S(=O)(=O)c1ccc(-c2cnc3[nH]cc(-c4ccsc4)c3n2)cc1 [Compound I-22, 2-(4-isopropylsulfonylphenyl)-7-(3-thienyl)-5H-pyrrolo[2,3-b]pyrazine]
0.01 to 0.05 µM | COc1ncc(-c2c[nH]c3ncc(-c4ccc(S(=O)(=O)C(C)C)cc4)nc23)cc1C [Compound I-38, 2-(4-isopropylsulfonylphenyl)-7-(6-methoxy-5-methyl-3-pyridyl)-5H-pyrrolo[2,3-b]pyrazine]
0.01 to 0.05 µM | CC(C)S(=O)(=O)c1ccc(-c2cnc3[nH]cc(-c4cncc5ccccc45)c3n2)cc1 [Compound I-42, 4-[2-(4-isopropylsulfonylphenyl)-5H-pyrrolo[2,3-b]pyrazin-7-yl]isoquinoline]
0.01 to 0.05 µM | CC(C)S(=O)(=O)c1ccc(-c2cnc3[nH]cc(-c4cc5ccccc5o4)c3n2)cc1 [Compound I-36, 7-(benzofuran-2-yl)-2-(4-isopropylsulfonylphenyl)-5H-pyrrolo[2,3-b]pyrazine]
> 0.05 µM | CC(C)S(=O)(=O)c1ccc(-c2cnc3[nH]cc(-c4cnn(C)c4)c3n2)cc1 [Compound I-50, 2-(4-isopropylsulfonylphenyl)-7-(1-methylpyrazol-4-yl)-5H-pyrrolo[2,3-b]pyrazine]
> 0.05 µM | CC(C)S(=O)(=O)c1ccc(-c2cnc3[nH]cc(-c4cscc4C#N)c3n2)cc1 [Compound I-21, 4-[2-(4-isopropylsulfonylphenyl)-5H-pyrrolo[2,3-b]pyrazin-7-yl]thiophene-3-carbonitrile]
> 0.05 µM | CC(C)S(=O)(=O)c1ccc(-c2cnc3[nH]cc(-c4cc5ccccc5n4C(=O)OC(C)(C)C)c3n2)cc1 [Compound I-61, tert-butyl 2-[2-(4-isopropylsulfonylphenyl)-5H-pyrrolo[2,3-b]pyrazin-7-yl]indole-1-carboxylate]

Ki | Structure (SMILES)
0.01 to 0.05 µM | CC(C)S(=O)(=O)c1ccc(-c2cnc3[nH]cc(-c4cccnc4)c3n2)cc1 [Compound I-1, 2-(4-Isopropylsulfonylphenyl)-7-(3-pyridyl)-5H-pyrrolo[2,3-b]pyrazine]
≤ 0.01 µM | CC(C)S(=O)(=O)c1ccc(-c2cnc3[nH]cc(-c4cnc(N)nc4)c3n2)cc1 [Compound I-13, 5-[2-(4-isopropylsulfonylphenyl)-5H-pyrrolo[2,3-b]pyrazin-7-yl]pyrimidin-2-amine]
0.01 to 0.05 µM | COc1cccc(-c2c[nH]c3ncc(-c4ccc(S(=O)(=O)C(C)C)cc4)nc23)c1 [Compound I-30, 2-(4-isopropylsulfonylphenyl)-7-(3-methoxyphenyl)-5H-pyrrolo[2,3-b]pyrazine]
> 0.05 µM | CC(C)S(=O)(=O)c1ccc(-c2cnc3[nH]cc(-c4ccc(-c5nnn[nH]5)cc4)c3n2)cc1 [Compound I-67, 2-(4-isopropylsulfonylphenyl)-7-[4-(1H-tetrazol-5-yl)phenyl]-5H-pyrrolo[2,3-b]pyrazine]
≤ 0.01 µM | CC(C)S(=O)(=O)c1ccc(-c2cnc3[nH]cc(-c4cc(O[C@H](C)c5ccccc5Cl)c(C(=O)O)s4)c3n2)cc1 [Compound I-70, 3-[(1R)-1-(2-chlorophenyl)ethoxy]-5-[2-(4-isopropylsulfonylphenyl)-5H-pyrrolo[2,3-b]pyrazin-7-yl]thiophene-2-carboxylic acid]
> 0.05 µM | CC(C)S(=O)(=O)c1ccc(-c2cnc3[nH]cc(-c4ccccc4)c3n2)cc1 [Compound I-5, 2-(4-isopropylsulfonylphenyl)-7-phenyl-5H-pyrrolo[2,3-b]pyrazine]
0.01 to 0.05 µM | CC(C)S(=O)(=O)c1ccc(-c2cnc3[nH]cc(-c4cc5ccccc5s4)c3n2)cc1 [Compound I-45, 7-(benzothiophen-2-yl)-2-(4-isopropylsulfonylphenyl)-5H-pyrrolo[2,3-b]pyrazine]
> 0.05 µM | CCn1cc(-c2c[nH]c3ncc(-c4ccc(S(=O)(=O)C(C)C)cc4)nc23)cn1 [Compound I-7, 7-(1-ethylpyrazol-4-yl)-2-(4-isopropylsulfonylphenyl)-5H-pyrrolo[2,3-b]pyrazine]
0.01 to 0.05 µM | CC(C)S(=O)(=O)c1ccc(-c2cnc3[nH]cc(-c4cn[nH]c4)c3n2)cc1 [Compound I-47, 2-(4-(isopropylsulfonyl)phenyl)-7-(1H-pyrazol-4-yl)-5H-pyrrolo[2,3-b]pyrazine]
> 0.05 µM | COc1ccc2c(c1)cc(-c1c[nH]c3ncc(-c4ccc(S(=O)(=O)C(C)C)cc4)nc13)n2C(=O)OC(C)(C)C [Compound I-57, tert-butyl 2-[2-(4-isopropylsulfonylphenyl)-5H-pyrrolo[2,3-b]pyrazin-7-yl]-5-methoxy-indole-1-carboxylate]
> 0.05 µM | COc1ccc(-c2c[nH]c3ncc(-c4ccc(S(=O)(=O)C(C)C)cc4)nc23)cc1 [Compound I-29, 2-(4-isopropylsulfonylphenyl)-7-(4-methoxyphenyl)-5H-pyrrolo[2,3-b]pyrazine]
0.01 to 0.05 µM | Cc1ccc(-c2c[nH]c3ncc(-c4ccc(S(=O)(=O)C(C)C)cc4)nc23)s1 [Compound I-26, 2-(4-isopropylsulfonylphenyl)-7-(5-methyl-2-thienyl)-5H-pyrrolo[2,3-b]pyrazine]
0.01 to 0.05 µM | CC(C)S(=O)(=O)c1ccc(-c2cnc3[nH]cc(-c4ccn(C)n4)c3n2)cc1 [Compound I-49, 2-(4-isopropylsulfonylphenyl)-7-(1-methylpyrazol-3-yl)-5H-pyrrolo[2,3-b]pyrazine]
≤ 0.01 µM | CC(C)S(=O)(=O)c1ccc(-c2cnc3[nH]cc(-c4ccc(C(=O)O)s4)c3n2)cc1 [Compound I-62, 5-[2-(4-isopropylsulfonylphenyl)-5H-pyrrolo[2,3-b]pyrazin-7-yl]thiophene-2-carboxylic acid]
0.01 to 0.05 µM | CC(C)S(=O)(=O)c1ccc(-c2cnc3[nH]cc(-c4ccncc4)c3n2)cc1 [Compound I-10, 2-(4-isopropylsulfonylphenyl)-7-(4-pyridyl)-5H-pyrrolo[2,3-b]pyrazine]
> 0.05 µM | CC(C)S(=O)(=O)c1ccc(-c2cnc3[nH]cc(-c4ccccc4CO)c3n2)cc1 [Compound I-16, [2-[2-(4-isopropylsulfonylphenyl)-5H-pyrrolo[2,3-b]pyrazin-7-yl]phenyl]methanol]
